“Also recorded” adds a separate entry of the source.
What was measured:
[1] = tested on: Abeta oligomer-induced membrane trafficking deficits in primary hippocampal neurons; assay: Membrane trafficking/exocytosis (MTT) assay; details: read-out: Membrane Trafficking EC50; compound dosed prior to Abeta oligomer addition
Description: Primary hippocampal neurons from E18 Sprague-Dawley rat embryos were plated at optimized concentrations in 384 well plates in NB media (Invitrogen). Neurons were maintained in cultures for 3 weeks, with twice weekly feeding of NB media with N2 supplement (Invitrogen).
MTT reagent (3-(4,5-dimethylthizaol-2yl)-2,5diphenyl tetrazolium bromide) (Roche Molecular Biochemicals) was reconstituted in phosphate buffered saline to 5 mg/mL. 10 μL of MTT labeling reagent is added to each well and incubated at 37° C. for 1 h, then imaged. Exocytosis was assessed by automated microscopy and image processing to quantify the amount of endocytosed and exocytosed formazan.
Each assay plate was formatted so that compounds are tested with and without Abeta oligomer on each plate. […] Reduced formazan was first visible in intracellular vesicles. […] The dye precipitated in the aqueous environment of the culture and formed needle-shaped crystals on the surface of the neuron.

neuronal cultures = assay: Functional neuronal phenotype in neuronal cultures; type: cell-based; parameters: key: Antagonist: antagonists (block Abeta signaling); Agonist: agonists (block Abeta signaling with U-shaped dose-response curve and toxicity at high doses); Inactive: inactive (no effect in neuronal cultures)
Description: Neuronal cultures are treated with various concentrations of sigma compounds for 24 hours and nuclear intensity compared to vehicle is measured.

Sigma-2 receptor = Sigma-2 receptor competitive radioligand binding assay; parameters: species or system rat; details: read-out: Sigma-2 Receptor Affinity, Ki
Description: Radioligand binding assays for Sigma-1 receptors and Sigma-2 receptors were carried out by a commercial contract research organization. For Sigma-1 binding, various concentrations of test compounds from 100 μM to 1 nM were used to displace 8 nM [^3H](+)pentazocine from endogenous receptors on Jurkat cell membranes (Ganapathy M E et al. 1991, J Pharmacol. Exp. Ther. 289:251-260). 10 μM Haloperidol was used to define non-specific binding. For Sigma-2 receptors various concentrations of test compounds from 100 μM to 1 nM were used to displace 5 nM [^3H] […] (Bowen W D, et al. 1993, Mol. Neuropharmcol 3:117-126). 10 μM Haloperidol was used to define non-specific binding. Reactions were terminated by rapid filtration through Whatman GF/C filters using a Brandel 12R cell harvester followed by two washes with ice-cold buffer. Radioactivity on the dried filter discs was measured using a liquid scintillation analyzer (Tri-Carb 2900TR; PerkinElmer Life and Analytical Sciences). The displacement curves were plotted and the Ki values of the test ligands for the receptor subtypes were determined using GraphPad Prism (GraphPad Software Inc., San Diego, Calif.). The percentage specific binding was determined by dividing the difference between total bound (disintegrations per minute) and nonspecific bound (disintegrations per minute) by the total bound (disintegrations per minute).
The affinity of candidate sigma-2 ligand compounds at sigma-1 and sigma-2 receptors was also determined by displacement of different known labeled sigma-2 or sigma-1 ligands. Filtration assays were conducted according the previously published procedure (Xu, et al., 2005). Test compounds were dissolved in N,N-Dimethylformamide (DMF), dimethyl sulfoxide (DMSO) or ethanol and then diluted in 50 mM Tris-HCl pH 7.4 buffer containing 150 mM NaCl and 100 mM EDTA. Membrane homogenates were made from guinea pig brain for sigma-1 binding assay and rat liver for sigma-2 binding assay. Membrane homogenates were diluted with 50 mM Tris-HCl buffer, pH 8.0 and incubated at 25° C. in a total volume of 150 uL in 96 well plates with the radioligand and test compounds with concentrations ranging from 0.1 nM to 10 uM. After incubation was completed, the reactions were terminated by the addition of 150 uL of ice-cold wash buffer (10 mM Tris HCl, 150 mM NaCl, pH 7.4) using a 96 channel transfer pipette (Fisher Scientific, Pittsburgh, Pa.) and the samples harvested and filtered rapidly through 96 well fiber glass filter plate (Millipore, Billerica, Mass.) that had been presoaked with 100 uL of 50 mM Tris-HCl buffer. Each filter was washed four times with 200 uL of ice-cold wash buffer (10 mM Tris-HCl, 150 mM NaCl, pH 7.4). A Wallac 1450 MicroBeta liquid scintillation counter (Perkin Elmer, Boston, Mass.) was used to quantitate the bound radioactivity.
Nonspecific binding was determined from samples that contained 10 uM of cold haloperidol.
The binding affinity, Ki values was calculated using the method of Cheng and Prusoff.

[2] = Mouse liver microsome (MLM) stability; type: in vitro ADME
Description: A first pharmacokinetic study was performed in microsomes of mice mouse liver microsomes, MLM) by a commercial contract research organization. The studies were performed according to Obach, R. S et al. (1997) J. Pharmacol. Exp. Ther., 283: 46-58, which is incorporated herein by reference.

potassium channel hERG = potassium channel hERG (Homo sapiens (Human), UniProt Q12809); assay: In vitro toxicity, hERG inhibition; type: biochemical
Description: In vitro toxicity for Test Compounds is tested in a number of standard assays.

Sigma-1 receptor = Sigma-1 receptor competitive radioligand binding assay; details: read-out: Sigma-1 Receptor Affinity, Ki
Description: Radioligand binding assays for Sigma-1 receptors and Sigma-2 receptors were carried out by a commercial contract research organization. For Sigma-1 binding, various concentrations of test compounds from 100 μM to 1 nM were used to displace 8 nM [^3H](+)pentazocine from endogenous receptors on Jurkat cell membranes (Ganapathy M E et al. 1991, J Pharmacol. Exp. Ther. 289:251-260). 10 μM Haloperidol was used to define non-specific binding. […] 10 μM Haloperidol was used to define non-specific binding. Reactions were terminated by rapid filtration through Whatman GF/C filters using a Brandel 12R cell harvester followed by two washes with ice-cold buffer. Radioactivity on the dried filter discs was measured using a liquid scintillation analyzer (Tri-Carb 2900TR; PerkinElmer Life and Analytical Sciences). The displacement curves were plotted and the Ki values of the test ligands for the receptor subtypes were determined using GraphPad Prism (GraphPad Software Inc., San Diego, Calif.). The percentage specific binding was determined by dividing the difference between total bound (disintegrations per minute) and nonspecific bound (disintegrations per minute) by the total bound (disintegrations per minute).

Chain of potassium channel hERG (Q12809 whole entry): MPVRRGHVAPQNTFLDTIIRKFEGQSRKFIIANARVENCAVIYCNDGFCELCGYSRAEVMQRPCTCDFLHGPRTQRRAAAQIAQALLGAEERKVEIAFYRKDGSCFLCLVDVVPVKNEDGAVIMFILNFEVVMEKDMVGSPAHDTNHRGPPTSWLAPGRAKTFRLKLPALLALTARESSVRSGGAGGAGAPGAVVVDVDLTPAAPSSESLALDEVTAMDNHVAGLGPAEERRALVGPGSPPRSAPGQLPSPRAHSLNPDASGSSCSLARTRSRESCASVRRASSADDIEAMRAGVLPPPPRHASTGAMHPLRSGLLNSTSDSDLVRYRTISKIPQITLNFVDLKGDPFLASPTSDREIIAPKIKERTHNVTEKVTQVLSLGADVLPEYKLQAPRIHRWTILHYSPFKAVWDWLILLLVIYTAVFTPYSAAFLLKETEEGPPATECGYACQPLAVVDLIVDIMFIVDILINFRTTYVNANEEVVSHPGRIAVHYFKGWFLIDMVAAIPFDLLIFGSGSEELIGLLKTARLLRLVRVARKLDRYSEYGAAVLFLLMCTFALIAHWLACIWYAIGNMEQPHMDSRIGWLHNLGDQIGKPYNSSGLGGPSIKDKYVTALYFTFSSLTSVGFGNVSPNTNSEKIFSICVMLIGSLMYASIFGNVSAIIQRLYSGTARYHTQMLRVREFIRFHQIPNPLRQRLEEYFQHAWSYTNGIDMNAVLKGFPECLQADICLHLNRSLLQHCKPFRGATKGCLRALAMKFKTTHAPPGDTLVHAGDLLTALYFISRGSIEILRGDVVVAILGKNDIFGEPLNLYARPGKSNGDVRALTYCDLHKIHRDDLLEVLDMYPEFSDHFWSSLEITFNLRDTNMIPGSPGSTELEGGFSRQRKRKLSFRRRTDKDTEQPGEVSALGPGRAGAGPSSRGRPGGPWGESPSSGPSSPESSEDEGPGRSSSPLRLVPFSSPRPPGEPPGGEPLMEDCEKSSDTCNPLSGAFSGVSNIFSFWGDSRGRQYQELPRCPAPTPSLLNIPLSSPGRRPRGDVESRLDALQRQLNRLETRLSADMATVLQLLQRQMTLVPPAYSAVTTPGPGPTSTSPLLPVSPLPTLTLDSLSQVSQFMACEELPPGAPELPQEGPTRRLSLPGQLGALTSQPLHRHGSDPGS

Row | Ki (Sigma-2 receptor) [nM] | Mouse liver microsomes, MLM t½ ([2]; mouse, microsomes) [min] | Ki (Sigma-1 receptor) [nM] | SMILES | EC50 [1] [nM] | neuronal phenotype (neuronal cultures) | IC50 (potassium channel hERG) [nM] | Mouse liver microsomes, MLM t½ ([2]; mouse liver microsomes) [min]
1 | 6.6 | <1.75 | – | CC(=O)Oc1ccc(CCC(C)(C)N2Cc3ccc(S(C)(=O)=O)cc3C2)cc1OC(C)(C)C [compound 96] | 100000 | Inactive | – | –
2 | 11 | 84.21 | – | COc1ccc(CCC(C)(C)N2Cc3ccc(S(C)(=O)=O)cc3C2)cc1OC [compound 101] | 100000 | Inactive | – | –
3 | 15 | 1236.31 | – | CC(C)(CCc1ccc(Cl)c(Cl)c1)N1Cc2ccc(N3CCNCC3)cc2C1 [compound 108] | 100000 | Inactive | – | –
4 | 10000 | 15.66 | – | CC(C)(C#Cc1ccc2[nH]ncc2c1)N1Cc2ccc(S(C)(=O)=O)cc2C1 [compound 110] | 100000 | Inactive | – | –
5 | 1400 | 45 | – | COc1cc(CCC(C)(C)N2Cc3cccc(C(=O)N4CCOCC4)c3C2)ccc1O [compound 80] | 100000 | Inactive | 7400 | –
6 | 180 | 106.23 | – | CC(C)(CCc1ccc(Cl)cc1)N1Cc2cccc(C(=O)N3CCNCC3)c2C1 [compound 105] | 2600 | Neuroactive | – | –
7 | – | 27 | – | COc1cc(CCC(C)(C)N2Cc3cccc(C(=O)N4CCN(C)CC4)c3C2)ccc1O [compound 82] | 100000 | Inactive | 52000 | –
8 | 10000 | 25.21 | – | COc1cc(CCC(C)(C)N2Cc3cccc(N4CCNCC4)c3C2)ccc1O [compound 107] | 100000 | Inactive | – | –
9 | 9 | 79 | 50 | CC(C)Oc1cc(CCC(C)(C)N2Cc3ccc(S(C)(=O)=O)cc3C2)ccc1O [compound 70] | – | Inactive | 3100 | –
10 | 1.8 | 20.35 | – | COc1ccc(CCC(C)(C)N2Cc3ccc(S(C)(=O)=O)cc3C2)cc1 [compound 102] | 100000 | Inactive | – | –
11 | 1200 | 93.3 | – | COc1ccc(CCC(C)(C)N2Cc3cccc(C(=O)N4CCNCC4)c3C2)cc1 [compound 99] | 200 | Antagonist/; also recorded: Neuroactive | – | –
12 | 10000 | 19 | 10000 | COCCN(C)C(=O)c1cccc2c1CN(C(C)(C)CCc1ccc(O)c(OC)c1)C2 [compound 86] | – | – | 5100 | –
13 | 240 | 160.43 | – | CC(C)(CCc1ccc(Cl)c(Cl)c1)N1Cc2cccc(C(=O)N3CCNCC3)c2C1 [compound 106] | 3400 | Agonist | – | –
14 | 360 | 194 | 10000 | COc1cc(CCC(C)(C)N2Cc3cccc(C(=O)N(C)CCO)c3C2)ccc1O [compound 85] | – | – | 33000 | –
15 | 1.4 | 15.2 | – | COc1cccc(CCC(C)(C)N2Cc3ccc(S(C)(=O)=O)cc3C2)c1 [compound 103] | 100000 | Inactive | – | –
16 | 1.1 | 86 | 69 | CC(C)COc1cc(CCC(C)(C)N2Cc3ccc(S(C)(=O)=O)cc3C2)ccc1O [compound 87] | – | – | 570 | –
17 | 10000 | 29.35 | – | COc1cccc(CCC(C)(C)N2Cc3cccc(C(=O)N4CCNCC4)c3C2)c1 [compound 98] | 350 | Antagonist/; also recorded: Neuroactive | – | –
18 | 740 | 27.01 | – | COc1cc(CCC(C)(C)N2Cc3ccc(N4CCNCC4)cc3C2)ccc1O [compound 111] | 100000 | Inactive | – | –
19 | 31 | 253.79 | – | CC(C)(CCc1ccc(Cl)c(Cl)c1)N1Cc2cccc(N3CCNCC3)c2C1 [compound 109] | 100000 | Agonist | – | –
20 | – | 88 | – | COc1cc(CCC(C)(C)N2Cc3cccc(C(=O)N(C)CCN(C)C)c3C2)ccc1O [compound 81] | 100000 | Inactive | 10000 | –
21 | 10000 | 156.24 | – | COc1ccc(CCC(C)(C)N2Cc3cccc(C(=O)N4CCNCC4)c3C2)cc1OC [compound 100] | 1100 | Antagonist | – | –

Further lines, the compound ahead of its results:

Row | SMILES | Ki (Sigma-2 receptor) [nM] | Mouse liver microsomes, MLM t½ ([2]; mouse, microsomes) [min] | Ki (Sigma-1 receptor) [nM] | EC50 [1] [nM] | neuronal phenotype (neuronal cultures) | IC50 (potassium channel hERG) [nM] | Mouse liver microsomes, MLM t½ ([2]; mouse liver microsomes) [min]
22 | Cc1ccc2c(c1)CN([C@H](C)CCc1ccc(Cl)c(Cl)c1)C2 [compound 13] | – | 3 | – | 300 | Antagonist | 250 | –
23 | COc1cc(CCC(C)(C)N2Cc3cccc(S(C)(=O)=O)c3C2)ccc1O [compound 64] | 8.6 | 52 | 180 | – | Inactive | 20000 | –
24 | COc1cc(CCC(C)(C)N2Cc3cccc(F)c3C2)ccc1OCCO [compound 44] | 140 | 29 | 1300 | – | Antagonist | 99 | –
25 | COc1cc(CC[C@@H](C)N2Cc3ccc(S(C)(=O)=O)cc3C2)ccc1O [compound 68] | – | 152 | 100 | – | Inactive | – | –
26 | COc1cc2c(cc1OC)CN(C(C)(C)CCc1ccc(F)cc1)C2 [compound 34] | – | 46 | 7.5 | 13000 | Antagonist | – | –
27 | COc1cc(CC[C@@H](C)N2Cc3cc4c(cc3C2)OCO4)ccc1O [compound 6] | – | – | – | 300 | Antagonist | 980 | 20
28 | C[C@H](CCc1ccc(OC(=O)N(C)C)c(OC(F)(F)F)c1)N1Cc2ccc(F)cc2C1 [compound 43] | 140 | 5 | 380 | – | – | 670 | –
29 | COC[C@H](CCc1ccc(Cl)c(Cl)c1)N1Cc2ccc(F)cc2C1 [compound 46] | 160 | 5 | 94 | – | Inactive | 1600 | –
30 | COc1cc(CC[C@@H](C)N2Cc3cc(OC)c(OC)cc3C2)ccc1O [compound 7] | 68 | – | 42 | – | – | – | 155
31 | CC(C)Oc1ccc(CC[C@@H](C)N2Cc3cc4c(cc3C2)OCO4)cc1OC(C)C [compound 40] | 8.9 | 6 | 7.8 | – | – | 350 | –
32 | C[C@H](CCc1ccc(O)c(OC(C)(C)C)c1)N1Cc2ccc(S(C)(=O)=O)cc2C1 [compound 63] | 380 | 31 | 17 | – | Inactive | 11000 | –
33 | C[C@H](CCc1ccc(Cl)c(Cl)c1)N1Cc2cc(Cl)c(Cl)cc2C1 [compound 5] | 2.7 | 53 | 56 | > 20000 | Inactive | – | –
34 | C[C@H](CCc1ccc(OC(=O)N(C)C)c(OC(F)(F)F)c1)N1Cc2cccc(F)c2C1 [compound 41] | – | 9 | 520 | > 20000 | Inactive/ | – | –
35 | CC(C)(CCc1ccc(O)c(OC(F)(F)F)c1)N1Cc2c(F)ccc(F)c2C1 [compound 55] | 310 | 34 | 360 | – | – | 100000 | –
36 | COc1cc(CC[C@@H](C)N2Cc3ccc(Cl)cc3C2)ccc1O [compound 1] | 25 | 11 | 31 | – | – | 430 | –
37 | COc1cc(CC[C@@H](C)N2Cc3cc(Cl)c(Cl)cc3C2)ccc1O [compound 3] | 240 | 21 | 23 | 3800 | Neuroactive | – | –
38 | CC(C)(C)Oc1cc(CCC(C)(C)N2Cc3cccc(S(C)(=O)=O)c3C2)ccc1O [compound 66] | 2.6 | 10 | 130 | – | Inactive | 19000 | –
39 | COc1cc(CC[C@@H](C)N2Cc3cccc(F)c3C2)ccc1O [compound 8] | – | 16 | 41 | 250 to 400 | Antagonist | – | –
40 | C[C@H](CCc1ccc(Cl)c(Cl)c1)N1Cc2ccc(C(F)(F)F)cc2C1 [compound 4] | 2.2 | 40 | 33 | > 20000 | Inactive | – | –
41 | COc1cc(CCC(C)(C)N2Cc3cc4c(cc3C2)OCO4)ccc1OCCO [compound 47] | – | 91 | 1000 | – | Inactive | – | –
42 | CC(C)Oc1cc(CC[C@@H](C)N2Cc3ccc(F)cc3C2)ccc1O [compound 37] | 140 | 5 | 9.1 | – | – | 480 | –

Reference: US9796672B2, “Isoindoline compositions and methods for treating neurodegenerative disease” (Cognition Therapeutics, Inc., priority 2014, dated 2017)
